Reference: the supplement of paper PMC10307832

Experiments:
Experiment in all cases: relative viability (nuclei count vs DMSO), 5 days (fraction); higher = more cells survive
[1] = compound: CN1CCN(CC1)C2=CC(=C(C=C2)NC3=NC(=C(S3)C(=O)C4=C(C=CC=C4Cl)Cl)N)OC [XMD14-99]
Outline: (§1)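 Viability was read as treated-well nuclei divided by vehicle-well nuclei, using the median across plates. Lung cancer cell lines in 1536-well plates were kept overnight at 37 °C, pinned with five √10-spaced library-drug doses, and after 5 days were Hoechst-stained, imaged at 4× and counted in MetaXpress. Plates passed only with control CV below 25% and at least one doubling.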

[2] = compound: N[C@@H]1CCCN(c2c(/C=C3\SC(=O)NC3=O)cccc2-c2ccccc2)C1 [AZD1208]
Outline: as §1

[3] = compound: CN1CCN(CC1)C2=CC(=C(C=C2)NC3=NC(=C(S3)C(=O)C4=C(C=CC=C4Cl)Cl)N)OC [XMD14-99] + CC1(C)CCC(c2ccc(Cl)cc2)=C(CN2CCN(c3ccc(C(=O)NS(=O)(=O)c4ccc(N[C@H](CCN5CCOCC5)CSc5ccccc5)c(S(=O)(=O)C(F)(F)F)c4)cc3)CC2)C1 [Navitoclax] (partner 0.5 µM)
Outline: (§2)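 Relative viability equals treated-well nuclei counts divided by vehicle-well nuclei counts. Counts came from 4× images of lung cancer cell lines grown in 1536-well plates for 5 days after pin-tool dosing on the day after seeding. Dosing used one drug alone or a fixed anchor-drug dose plus five library-drug doses (not always all listed) in √10 steps, and values are medians of duplicate plates.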

[4] = compound: N[C@@H]1CCCN(c2c(/C=C3\SC(=O)NC3=O)cccc2-c2ccccc2)C1 [AZD1208] + N=C(N)NC(=N)NCCc1ccccc1 [Phenformin] (partner 250 µM)
Outline: as §2

Cell Line	relative viability ([1]; 0.08 µM)	relative viability ([1]; 0.8 µM)	relative viability ([1]; 2.53 µM)	relative viability ([1]; 8 µM)	relative viability ([2]; 0.08 µM)	relative viability ([2]; 0.253 µM)	relative viability ([2]; 0.8 µM)	relative viability ([2]; 2.53 µM)	relative viability ([2]; 8 µM)	relative viability ([3]; first compound 0.08 µM)	relative viability ([3]; first compound 0.8 µM)	relative viability ([3]; first compound 2.53 µM)	relative viability ([3]; first compound 8 µM)	relative viability ([4]; first compound 0.08 µM)	relative viability ([4]; first compound 0.253 µM)	relative viability ([4]; first compound 0.8 µM)	relative viability ([4]; first compound 2.53 µM)	relative viability ([4]; first compound 8 µM)
H3255	0.955	0.957	0.802	0.684	1.04	1.02	0.938	0.934	0.947	0.542	0.654	0.493	0.32	0.37	0.353	0.372	0.401	0.405
NCI-H2085	1	0.978	0.961	0.837	0.974	1.09	0.994	1.01	1.05	1.11	1.1	1.1	0.823	0.679	0.677	0.675	0.688	0.668
NCI-H2347	1.04	1	0.966	0.637	1.02	1.09	1	0.951	1.08	0.736	0.825	0.699	0.488	0.302	0.46	0.363	0.347	0.389
NCI-H1944	0.906	0.917	0.817	0.809	0.963	0.898	0.861	0.822	0.639	1.1	1.04	1.01	0.919	0.197	0.201	0.179	0.172	0.136
NCI-H1793	0.881	0.892	0.839	0.688	1.02	1.2	0.794	1.01	0.673	0.424	0.411	0.461	0.386	0.314	0.453	0.342	0.307	0.274
NCI-H596	0.944	1.05	1.01	0.887	0.908	0.951	0.844	0.949	0.677	1.03	0.956	0.702	0.88	0.674	1.01	0.689	0.668	0.477
A549	0.955	0.97	0.898	0.726	0.957	0.952	0.868	0.934	0.786	1.14	1.13	1.03	0.724	0.157	0.172	0.168	0.132	0.127
NCI-H520	0.903	0.96	0.932	0.818	0.938	1.17	0.943	0.908	0.754	0.992	1.1	1.12	1.01	0.47	0.577	0.476	0.369	0.279
EKVX	0.98	0.892	0.954	0.812	0.988	1.11	0.903	1.04	0.972	0.96	0.982	0.841	0.66	0.23	0.247	0.258	0.256	0.228
EPLC-272H	1.09	0.998	0.942	0.787	0.983	0.974	0.861	0.864	0.742	1.14	1.1	1.29	1.11	0.313	0.329	0.305	0.272	0.244
NCI-H1395	0.981	0.951	0.997	0.695	1.15	1	0.93	0.913	0.697	1.06	1.11	1.09	0.902	0.442	0.438	0.46	0.506	0.417
NCI-H2228	1.12	0.961	0.891	0.398	0.954	1.19	0.953	0.788	0.84	1.05	0.933	0.918	0.364	0.364	0.316	0.209	0.269	0.216
LXF-289	1.02	0.964	0.976	0.889	1.05	1.06	1.01	1.03	1.12	0.903	0.913	0.884	0.836	0.507	0.55	0.472	0.528	0.518
NCI-H2023	0.961	0.875	0.953	0.71	0.863	1.01	0.86	0.867	0.769	0.985	0.959	0.953	0.849	0.394	0.386	0.348	0.367	0.295
NCI-H3122	1	0.995	0.892	0.694	0.994	0.996	0.932	1.04	0.981	0.989	0.945	0.902	0.724	0.413	0.4	0.406	0.417	0.422
NCI-H1755	0.996	0.974	1.01	0.784	0.988	1.07	0.952	0.983	0.792	1.02	0.972	0.926	0.809	0.586	0.616	0.623	0.593	0.502
HCC-78	0.985	0.841	0.883	0.571	1.02	1.02	0.963	1.02	1.06	0.657	0.729	0.794	0.622	0.766	1.03	0.692	0.753	0.644
